The results in this text go back to patent publication US20230062100A1, “SUBSTITUTED AMINOQUINOLONES AS DGKALPHA INHIBITORS FOR IMMUNE ACTIVATION” (Bayer Aktiengesellschaft, priority 2019, published 2023).

Chain of DGKα (P23743 with tags, fused parts or gaps): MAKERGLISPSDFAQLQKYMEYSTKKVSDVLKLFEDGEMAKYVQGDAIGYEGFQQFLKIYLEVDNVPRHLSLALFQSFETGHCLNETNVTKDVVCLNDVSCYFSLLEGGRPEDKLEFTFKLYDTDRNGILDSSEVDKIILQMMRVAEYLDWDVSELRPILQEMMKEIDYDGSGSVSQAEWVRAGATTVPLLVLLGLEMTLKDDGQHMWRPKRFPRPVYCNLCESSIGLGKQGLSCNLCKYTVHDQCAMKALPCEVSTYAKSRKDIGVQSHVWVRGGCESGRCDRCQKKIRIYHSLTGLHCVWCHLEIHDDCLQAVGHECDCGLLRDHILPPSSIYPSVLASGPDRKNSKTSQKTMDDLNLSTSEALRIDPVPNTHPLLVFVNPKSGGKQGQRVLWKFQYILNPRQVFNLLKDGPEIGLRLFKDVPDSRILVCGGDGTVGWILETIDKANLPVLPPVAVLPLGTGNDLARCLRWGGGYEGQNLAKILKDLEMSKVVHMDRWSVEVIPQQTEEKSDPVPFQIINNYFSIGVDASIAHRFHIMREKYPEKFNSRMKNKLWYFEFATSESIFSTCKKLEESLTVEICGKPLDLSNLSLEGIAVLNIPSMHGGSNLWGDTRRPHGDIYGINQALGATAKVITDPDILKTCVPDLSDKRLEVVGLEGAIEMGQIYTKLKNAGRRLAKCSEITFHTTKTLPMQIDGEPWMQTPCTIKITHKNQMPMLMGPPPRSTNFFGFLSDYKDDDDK

The test addresses DGKα (Homo sapiens, UniProt P23743). Description: Human DGKα kinase activity inhibition assay (ADP-Glo). As to conditions: in vitro human DGKα kinase activity inhibition assay. The format is biochemical. A digest of the protocol: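 C-terminally FLAG-tagged full-length human DGKα from baculovirus/insect cells (typically ~0.1 nM) phosphorylated 1,2-dioleoyl-sn-glycerol in octyl-β-D-glucopyranoside micelles in MOPS pH 7.4. ADP formed was quantified by ADP-Glo luminescence after 1 h ATP depletion at 22 °C.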
`Cn1c(=O)c(C(N)=O)c(N2CCC(Oc3ccc(OC(F)(F)F)cc3)CC2)c2cc(F)ccc21` [Example 165, 6-fluoro-1-methyl-2-oxo-4-{4-[4-(trifluoromethoxy)phenoxy]piperidin-1-yl}-1,2-dihydroquinoline-3-carboxamide] registered an IC50 of 0.17 nM.

In turn, `Cc1ccccc1COC1CCN(c2c(C(N)=O)c(=O)n(C)c3ccccc23)CC1` [Example 124, 1-methyl-4-{4-[(2-methylphenyl)methoxy]piperidin-1-yl}-2-oxo-1,2-dihydroquinoline-3-carboxamide] showed an IC50 of 30 nM.

`Cn1c(=O)c(C#N)c(N2CCC(Oc3ccccc3Cl)CC2)c2ccccc21` [Example 16, 4-[4-(2-chlorophenoxy)piperidin-1-yl]-1-methyl-2-oxo-1,2-dihydroquinoline-3-carbonitrile] registered an IC50 of 33 nM.

Take `Cn1c(=O)c(C#N)c(N2CCC(Oc3cccc(OC(F)(F)F)c3)CC2)c2ccc(Br)cc21` [Example 61, 7-bromo-1-methyl-2-oxo-4-{4-[3-(trifluoromethoxy)phenoxy]piperidin-1-yl}-1,2-dihydroquinoline-3-carbonitrile]: the midpoint of inhibition, the IC50, lay at 22 nM.

In the case of `Cn1c(=O)c(C#N)c(N2CCC(Cc3ccccc3)CC2)c2ccccc21` [Example 91, 4-(4-benzylpiperidin-1-yl)-1-methyl-2-oxo-1,2-dihydroquinoline-3-carbonitrile], the IC50 turned out to be 4.5 nM.

Regarding `COc1ccccc1OC1CCN(c2c(C(N)=O)c(=O)n(C)c3ccc(C)cc23)CC1` [Example 162], the midpoint of inhibition, the IC50, lay at 57 nM.

In turn, `COc1ccc2c(c1)c(N1CCC(Oc3ccc(OC(F)(F)F)cc3)CC1)c(C#N)c(=O)n2C` [Example 156, 6-methoxy-1-methyl-2-oxo-4-{4-[4-(trifluoromethoxy)phenoxy]piperidin-1-yl}-1,2-dihydroquinoline-3-carbonitrile] came in with an IC50 of 7 nM.

`Cn1c(=O)c(C(N)=O)c(N2CCC(Oc3ccc(Cl)cc3)CC2)c2ccccc21` [Example 50, 4-[4-(4-chlorophenoxy)piperidin-1-yl]-1-methyl-2-oxo-1,2-dihydroquinoline-3-carboxamide] came in with an IC50 of 3.1 nM.

Molecule `COc1cccc(COC2CCN(c3c(C#N)c(=O)n(C)c4ccccc34)CC2)c1` [Example 115, 4-{4-[(3-methoxyphenyl)methoxy]piperidin-1-yl}-1-methyl-2-oxo-1,2-dihydroquinoline-3-carbonitrile] gave an IC50 of 29 nM.

Turning to `Cc1cccc(OC2CCN(c3c(C#N)c(=O)n(C)c4ccc(C)cc34)CC2)c1` [Example 149, 1,6-dimethyl-4-[4-(3-methylphenoxy)piperidin-1-yl]-2-oxo-1,2-dihydroquinoline-3-carbonitrile], the IC50 worked out at 7.7 nM.

As to `Cc1cc(Br)c2c(c1)c(N1CCC(Oc3cccc(Cl)c3)CC1)c(C#N)c(=O)n2C` [Example 169, 8-bromo-4-[4-(3-chlorophenoxy)piperidin-1-yl]-1,6-dimethyl-2-oxo-1,2-dihydroquinoline-3-carbonitrile], the IC50 stood at 2530 nM.

`Cn1c(=O)c(C#N)c(N2CCC(Oc3ccc(OC(F)(F)F)cc3)CC2)c2cc(F)ccc21` [Example 166, 6-fluoro-1-methyl-2-oxo-4-{4-[4-(trifluoromethoxy)phenoxy]piperidin-1-yl}-1,2-dihydroquinoline-3-carbonitrile]: it took 0.97 nM to reach half-maximal inhibition (IC50).

`Cn1c(=O)c(C#N)c(N2CCC(Sc3ccccc3)CC2)c2cc(Br)ccc21` [Example 140, 6-bromo-1-methyl-2-oxo-4-[4-(phenylsulfanyl)piperidin-1-yl]-1,2-dihydroquinoline-3-carbonitrile] returned an IC50 of 1.4 nM.

`Cn1c(=O)c(C#N)c(N2CCCC(Oc3ccc(Br)cc3)CC2)c2ccccc21` (racemic) [Example 103, (rac)-4-[4-(4-bromophenoxy)azepan-1-yl]-1-methyl-2-oxo-1,2-dihydroquinoline-3-carbonitrile] had an IC50 of 18 nM.

In the case of `Cn1c(=O)c(C(N)=O)c(N2CCC(OCc3cccc(F)c3)CC2)c2ccccc21` [Example 128, 4-{4-[(3-fluorophenyl)methoxy]piperidin-1-yl}-1-methyl-2-oxo-1,2-dihydroquinoline-3-carboxamide], the concentration for half-maximal inhibition (IC50) worked out at 29 nM.

`Cn1c(=O)c(C#N)c(N2CCC(Oc3ccccc3)CC2)c2ccc(OC3CC3)cc21` [Example 70, 7-(cyclopropyloxy)-1-methyl-2-oxo-4-(4-phenoxypiperidin-1-yl)-1,2-dihydroquinoline-3-carbonitrile] registered an IC50 of 17 nM.

Take `CN1CCN(c2ccc(OC3CCN(c4c(C#N)c(=O)n(C)c5ccccc45)CC3)cc2)C1=O` [Example 22, 1-methyl-4-{4-[4-(3-methyl-2-oxoimidazolidin-1-yl)phenoxy]piperidin-1-yl}-2-oxo-1,2-dihydroquinoline-3-carbonitrile]: the IC50 was 129 nM.

As for `Cc1ccc2c(c1)c(N1CCC(Oc3ccc(F)cc3)CC1)c(C#N)c(=O)n2C` [Example 141, 4-[4-(4-fluorophenoxy)piperidin-1-yl]-1,6-dimethyl-2-oxo-1,2-dihydroquinoline-3-carbonitrile], the concentration for half-maximal inhibition (IC50) worked out at 7.7 nM.

With `Cn1c(=O)c(C#N)c(N2CCC(Oc3ccc(Cl)cc3)CC2)c2ccc(Br)cc21` [Example 57, 7-bromo-4-[4-(4-chlorophenoxy)piperidin-1-yl]-1-methyl-2-oxo-1,2-dihydroquinoline-3-carbonitrile], the IC50 was 17 nM.

On to `Cn1c(=O)c(C#N)c(N2CCC(Oc3ccc(C(F)(F)F)cc3)CC2)c2ccc(C3CC3)cc21` [Example 87, 7-cyclopropyl-1-methyl-2-oxo-4-{4-[4-(trifluoromethyl)phenoxy]piperidin-1-yl}-1,2-dihydroquinoline-3-carbonitrile], for which it took 40 nM to reach half-maximal inhibition (IC50).

`Cn1c(=O)c(C(N)=O)c(N2CCC(Oc3ccc(OC(F)(F)F)cc3)CC2)c2ccc(N3CCCC3=O)cc21` [Example 96, 1-methyl-2-oxo-7-(2-oxopyrrolidin-1-yl)-4-{4-[4-(trifluoromethoxy)phenoxy]piperidin-1-yl}-1,2-dihydroquinoline-3-carboxamide] came in with an IC50 of 12 nM.

The molecule `Cn1c(=O)c(C#N)c(N2CCC(Oc3ccc(F)cc3)CC2)c2ccccc21` [Example 6, 4-[4-(4-fluorophenoxy)piperidin-1-yl]-1-methyl-2-oxo-1,2-dihydroquinoline-3-carbonitrile] had an IC50 of 8.4 nM.

`Cc1cccc(OC2CCN(c3c(C#N)c(=O)n(C)c4ccccc34)CC2)c1` [Example 3, 1-methyl-4-[4-(3-methylphenoxy)piperidin-1-yl]-2-oxo-1,2-dihydroquinoline-3-carbonitrile] had an IC50 of 6.2 nM.

With `Cn1c(=O)c(C#N)c(N2CCC(Oc3ccc(F)cc3)CC2)c2ccc(N3CCCC3=O)cc21` [Example 84, 4-[4-(4-fluorophenoxy)piperidin-1-yl]-1-methyl-2-oxo-7-(2-oxopyrrolidin-1-yl)-1,2-dihydroquinoline-3-carbonitrile], the IC50 is 25 nM.

In turn, `Cc1ccccc1OC1CCN(c2c(C#N)c(=O)n(C)c3ccccc23)CC1` [Example 14, 1-methyl-4-[4-(2-methylphenoxy)piperidin-1-yl]-2-oxo-1,2-dihydroquinoline-3-carbonitrile] gave an IC50 of 14 nM.

Regarding `Cn1c(=O)c(C#N)c(N2CCC(Oc3cccc(Cl)c3)CC2)c2ccccc21` [Example 9, 4-[4-(3-chlorophenoxy)piperidin-1-yl]-1-methyl-2-oxo-1,2-dihydroquinoline-3-carbonitrile], the IC50 turned out to be 9.1 nM.
